# Literature values as cited in patent US9119796B2, “Razor comprising a molded shaving aid composition comprising a pyrithione source” (The Gillette Company, priority 2011, dated 2015).
# Test system: microbials
# Settings: soap bar composition with platelet ZPT compared with particulate ZPT (median about 0.70 microns, mean about 0.75 microns, thickness less than 0.6 microns); FIG. 1 of U.S. Ser. No. 13/036,889
structure (smiles),measurement,value
"[O-]n1ccccc1=S.[O-]n1ccccc1=S.[Zn+2] [platelet ZPT, zinc salt of 1-hydroxy-2-pyridinethione]",number of colony forming units (CFUs) that form on a substrate,reduces the number of colony forming units (CFUs)
